{"source": "paper PMC7417721", "about": "“Cell cycle exit during bortezomib‐induced osteogenic differentiation of mesenchymal stem cells was mediated by Xbp1s‐upregulated p21^Cip1 and p27^Kip1” (Journal of Cellular and Molecular Medicine, 2020)", "key": {"[1]": {"test_system": "cyclin D3, cyclin E1, Cdk2, Cdk4, p21Cip1, p27Kip1 in mBM-MSCs", "test": "Western blotting of cell cycle regulatory components (cyclins, CDKs, CKIs)", "format": "cell-based, mouse", "conditions": "24 h", "protocol": "(§1) Western blotting was performed as described previously. ^16 Briefly, mBM‐MSCs were cultured with indicated doses of bortezomib for 24 h; then, the cells were lysed in radioimmunoprecipitation assay (RIPA) buffer. Equal amount of proteins was loaded on 10% sodium dodecyl sulphate‐polyacrylamide gel electrophoresis (SDS‐PAGE) gel and was then electrotransferred to polyvinylidene difluoride (PVDF) membrane immunoblotted for specific primary antibodies. Immunoblots were visualized using horseradish peroxidase (HRP)‐conjugated secondary antibodies (Jackson ImmunoResearch Laboratories, West Grove, PA, USA) and the enhanced chemiluminescence (ECL) Western Blot Detection Kit (Phygene Life Sciences, Fuzhou, Fujian, China). The chemiluminescent blots were captured by using digital imaging with a charge‐coupled device (CCD) camera system MiniChemi 610 and analysed by Lane 1D™ analysis software (Sage, Beijing, China)."}, "[2]": {"test_system": "Grp78, Chop, Xbp1s, Atf4 in mBM-MSCs", "test": "Western blotting of ER stress signalling proteins", "format": "cell-based, mouse", "conditions": "24 h", "protocol": "as §1"}, "mBM-MSCs [3]": {"test_system": "mBM-MSCs", "test": "Cell cycle analysis (propidium iodide, flow cytometry)", "format": "cell-based, mouse", "conditions": "24 h; for proportion of S phase cells: mean ± SEM of three experiments (control 32.017 ± 1.991); for percentage of cells in G0/G1 phase: mean ± SEM of three experiments (control 55.14 ± 5.132)", "protocol": "mBM‐MSCs (5 × 10^5 cells) treated with various concentrations of bortezomib for 24 h were harvested, washed with PBS solution, fixed in 70% ethanol and kept at −20°C overnight. Cells were then resuspended in a buffer containing […] propidium iodide and […] RNase A (Solarbio Life Sciences, Beijing, China). Samples were analysed using a BD FACSCanto II flow cytometer. Data were acquired and analysed using CellQuest and ModFit software (BD Biosciences, San Jose, CA, USA)."}, "[4]": {"test_system": "p21Cip1 and p27Kip1 mRNA in mBM-MSCs", "test": "Real-time PCR of p21Cip1 and p27Kip1 mRNA", "format": "cell-based, mouse", "conditions": "24 h", "protocol": "Total RNA from cells was extracted using Ultrapure RNA Kit (DNase I) (CWBIO, Beijing, China) according to the manufacturer's instructions. Reverse transcription was performed using HiFiScript cDNA Synthesis Kit (CWBIO, Beijing, China). Real‐time PCR was performed using UltraSYBR Mixture (CWBIO, Beijing, China) and a CFX96™ Real‐Time PCR Detection System (Bio‐Rad, Hercules, CA, USA). The thermal cycling conditions included 2 min at 50°C and 10 min at 95°C, followed by 40 cycles of 95°C for 15 s, 58°C for 30 s and 72°C for 30 s. Mouse β‐actin was used as internal control. The relative expression levels of each gene were analysed using the 2^‐ΔΔCt method. The primers were designed using Primer3Plus platform (http://www.bioinformatics.nl/primer3plus) and synthesized by Sangon Biotech (Shanghai, China)."}, "mBM-MSCs [5]": {"test_system": "mBM-MSCs", "test": "EdU cell proliferation assay (flow cytometry)", "format": "cell-based, mouse", "conditions": "various concentrations, 24 h", "protocol": "5‐ethynyl‐2′‐deoxyuridine (EdU) incorporation assay was performed to measure cell proliferation with the kit (Molecular Probes, Eugene, OR, USA) according to the manufacturer's instructions. Briefly, mBM‐MSCs were seeded and grown at a density of 70%‐80% confluence in 35‐mm culture dishes and then treated with various concentrations of bortezomib for 24 h. EdU was added to the culture media 4 h before the harvest. The cells were detected by flow cytometry using a BD FACSCanto II instrument. Data were analysed using FlowJo 7.6.2 software (Tree Star, Ashland, OR, USA)."}, "[6]": {"test_system": "Runx2, Sp7, Col1A1, ALP, OCN/BGLAP in mBM-MSCs", "test": "Western blotting of osteogenesis-related proteins", "format": "cell-based, mouse", "conditions": "indicated concentrations, 24 h, Figure S1", "protocol": "as §1"}, "mBM-MSCs [7]": {"test_system": "mBM-MSCs", "test": "Alizarin Red S staining of mineralized matrix (osteogenic differentiation)", "format": "cell-based, mouse", "conditions": "8 days", "protocol": "mBM‐MSCs were plated in 35‐mm‐diameter culture dishes and grown in DMEM containing 10% FBS, 100 U/mL penicillin, 100 μg/mL streptomycin, and 2 mM L‐glutamine at 37°C in a humidified incubator with 5% CO2 in the air. When cell density reached 70%‐80% confluence, the cells were subsequently cultured in the presence or absence of bortezomib at the indicated concentrations for 8 days. The culture medium was changed every 3 days. mBM‐MSCs cultured in an osteogenic induction media containing […] ascorbic acid and 10 mM β‐glycerophosphate sodium were used as a positive control. For Alizarin Red S (ARS) (Solarbio Life Sciences, Beijing, China) staining, mBM‐MSCs were fixed with 4% formaldehyde for 10 min, then rinsed twice with phosphatebuffered saline (PBS) at room temperature. The cells were then stained with 1% ARS (pH 4.2) for up to 15 min at room temperature. Images of mBM‐MSCs stained with ARS were captured and stored digitally."}, "mBM-MSCs [8]": {"test_system": "mBM-MSCs", "test": "MTT cell viability assay", "conditions": "for pIC50: Mus musculus, read-out: IC50, cell viability", "protocol": "mBM‐MSCs were seeded at a cell density of 5 × 10^3 cells/mL in 96‐well plates and allowed to attach to the wells for 24 h. Cells were then treated with various concentrations of bortezomib. After 24‐h and 48‐h treatment, 10 µL of 3‐(4,5‐dimethylthiazol‐2‐yl)‐2,5‐diphenyltetrazolium bromide (MTT) solution (Sigma‐Aldrich, Burlington, MA, USA) was added to each well to a final concentration of 0.5 mg/mL. The supernatant medium was then discarded, and a volume of 150 µL of DMSO was added to each well to lyse the crystal. The plates were agitated for 15 min to ensure the dissolution of any remaining crystals. The absorbance in the relevant wells was measured at 490 nm using an Ultra Microplate Reader (ELx800, BioTek Instruments, Winooski, VT, USA). Each experiment was reproduced three times in duplicate."}, "[9]": {"conditions": "MKC3946 10 nM with bortezomib 2.5 nM"}}, "note": "pIC50: −log10 of the molar value. Where two headings read alike, the source gives them in different places."}
{"smiles": "Cn1cc(-c2ccc3c(c2)CCN3C(=O)Cc2cccc(C(F)(F)F)c2)c2c(N)ncnc21", "note": "[GSK2606414]", "values": [{"measurement": "expression of p21Cip1 (protein)", "setting": "[1]; in the presence of bortezomib", "result": "no significant effects"}, {"measurement": "expression of p27Kip1 (protein)", "setting": "[1]; in the presence of bortezomib", "result": "no significant effects"}, {"measurement": "Atf4 (protein)", "setting": "[2]; in the presence of bortezomib", "result": "marked decrease"}]}
{"smiles": "CN1CCN(C(=O)c2ccc(-c3ccc4c(C=O)c(O)ccc4c3)s2)CC1", "note": "[MKC3946]", "values": [{"measurement": "expression of p21Cip1 (protein)", "setting": "[1]; in the presence of bortezomib", "result": "decrease"}, {"measurement": "expression of p27Kip1 (protein)", "setting": "[1]; in the presence of bortezomib", "result": "decrease"}, {"measurement": "bortezomib-induced Xbp1s (protein)", "setting": "[2]; in the presence of bortezomib", "result": "aborted"}, {"measurement": "cell cycle distribution", "setting": "mBM-MSCs [3]; 10 nM MKC3946 alone, Figure S2", "result": "no effects"}, {"measurement": "percentage of S phase", "setting": "mBM-MSCs [3]; combination of 10 nM MKC3946 with 2.5 nM bortezomib, Figure S2", "result": "significantly decreased"}, {"measurement": "mRNA level of p21Cip1", "setting": "[4]; [9]", "result": "aborted up‐regulation"}, {"measurement": "mRNA level of p27Kip1", "setting": "[4]; [9]", "result": "aborted up‐regulation"}]}
{"smiles": "CC(C)C[C@H](NC(=O)[C@H](Cc1ccccc1)NC(=O)c1cnccn1)B(O)O", "note": "[bortezomib, Bortezomib]", "values": [{"measurement": "expression of Cdk2 (protein)", "setting": "[1]; indicated concentrations", "result": "markedly decreased"}, {"measurement": "expression of Cdk4 (protein)", "setting": "[1]; indicated concentrations", "result": "markedly decreased"}, {"measurement": "expression of cyclin D3 (protein)", "setting": "[1]; indicated concentrations", "result": "no effects"}, {"measurement": "expression of cyclin E1 (protein)", "setting": "[1]; indicated concentrations", "result": "no effects"}, {"measurement": "expression of p21Cip1 (protein)", "setting": "[1]; indicated concentrations", "result": "significantly increased"}, {"measurement": "expression of p27Kip1 (protein)", "setting": "[1]; indicated concentrations", "result": "significantly increased"}, {"measurement": "numbers of EdU-positive mBM-MSCs", "setting": "mBM-MSCs [5]", "result": "dose‐dependently decreased"}, {"measurement": "expression of Col1A1", "setting": "[6]", "result": "induce the expression"}, {"measurement": "expression of Runx2", "setting": "[6]", "result": "induce the expression"}, {"measurement": "expression of Sp7", "setting": "[6]", "result": "induce the expression"}, {"measurement": "expression of alkaline phosphatase (ALP)", "setting": "[6]", "result": "induce the expression"}, {"measurement": "expression of osteocalcin (OCN/BGLAP)", "setting": "[6]", "result": "induce the expression"}, {"measurement": "expression of Atf4", "setting": "[2]; indicated concentrations", "result": "activated"}, {"measurement": "expression of ER stress marker Chop", "setting": "[2]; indicated concentrations", "result": "increased expression levels"}, {"measurement": "expression of ER stress marker Grp78", "setting": "[2]; indicated concentrations", "result": "increased expression levels"}, {"measurement": "expression of Xbp1s", "setting": "[2]; indicated concentrations", "result": "activated"}, {"measurement": "calcium deposition (ARS staining) versus control cells", "setting": "mBM-MSCs [7]; 2.5 nM", "result": "much higher amounts of calcium phosphate crystals than the control cells"}, {"measurement": "calcium deposition (ARS staining) versus control cells", "setting": "mBM-MSCs [7]; 5 nM", "result": "much higher amounts of calcium phosphate crystals than the control cells"}, {"measurement": "pIC50", "setting": "mBM-MSCs [8]; 24 h", "result": 8.05}, {"measurement": "pIC50", "setting": "mBM-MSCs [8]; 48 h", "result": 8.18}, {"measurement": "doses resulting in cytotoxicity to mBM-MSCs", "setting": "mBM-MSCs [8]; mBM-MSCs, MTT, 24 h and 48 h", "result": "higher than 5 nM"}, {"measurement": "proportion of cells in the G2/M phase", "setting": "mBM-MSCs [3]; 2.5 nM and 5 nM", "result": "no significant change"}, {"measurement": "proportion of S phase cells", "setting": "mBM-MSCs [3]; 2.5 nM", "result": "21.807 ± 2.844", "unit": "%"}, {"measurement": "percentage of cells in G0/G1 phase", "setting": "mBM-MSCs [3]; 2.5 nM", "result": "67.36 ± 6.067", "unit": "%"}, {"measurement": "proportion of S phase cells", "setting": "mBM-MSCs [3]; 5 nM", "result": "19.940 ± 4.321", "unit": "%"}, {"measurement": "percentage of cells in G0/G1 phase", "setting": "mBM-MSCs [3]; 5 nM", "result": "68.117 ± 2.743", "unit": "%"}, {"measurement": "mRNA level of p21Cip1", "setting": "[4]; 2.5 nM", "result": "significantly up‐regulated"}, {"measurement": "mRNA level of p27Kip1", "setting": "[4]; 2.5 nM", "result": "significantly up‐regulated"}]}
